{"source": "paper PMC8306139", "about": "“A Novel Dialkylamino-Functionalized Chalcone, DML6, Inhibits Cervical Cancer Cell Proliferation, In Vitro, via Induction of Oxidative Stress, Intrinsic Apoptosis and Mitotic Catastrophe” (Molecules, 2021)", "key": {"[1]": {"test_system": "human colon fibroblast cells (CRL1459)", "test": "MTT assay, CRL1459", "format": "cell-based", "settings": "72 h", "method": "(§1) The concentration of the tested compounds that produced a 50% inhibition of cell growth (IC50) was determined.\n(§2) A panel of cancer cell lines, including cervical (OV2008 and HeLa), breast (MDA-MB-231), lung (A549) and colon (LOVO), prostate (DU145), human embryonic kidney cells (HEK293), human colon fibroblast cells (CRL1459), and Chinese hamster ovary cells (CHO), were grown as adherent monolayers in flasks containing Dulbecco’s modified Eagle medium (DMEM), supplemented with 10% fetal bovine serum (FBS) and 1% penicillin and streptomycin, in a humidified incubator with 5% CO2 at 37 °C.\n(§3) The cells were seeded evenly (180 μL/well) in 96-well plates, at a density of 3000–5000 cells/well and incubated with serial dilutions of the compounds ranging from 0.1 to 100 μM. […] Cytation™ 5 and Cytation™ 7 multi-mode detector (Bio Tek Instruments, Winooski, VT, USA) was used to determine the absorbance readings at a wavelength of 570 nm. The IC50 values were determined based on 3 separate experiments, with each experiment carried out in triplicate. The selectivity of the compounds was determined by comparing their IC50 values in cervical cancer compared to the normal epithelial cell lines, HEK293, CHO, and CRL1459."}, "OV2008 cells [2]": {"test_system": "OV2008 cells", "test": "Reactive oxygen species detection (H2DCFDA)", "format": "cell-based", "settings": "5 or 20 μM, 24 h, vs vehicle", "procedure": "The total intracellular level of reactive oxygen species (ROS) was determined by staining the cells with 2,7-dichlorofluorescein diacetate (H2DCFDA). In this assay, cellular esterases cleave the nonfluorescent H2DCFDA molecule to yield H2DCF, by removing the lipophilic moiety (a diacetate group). Subsequently, H2DCF is oxidized by ROS to 2′-7′dichlorofluorescein (DCF), which is a highly fluorescent dye. ROS levels were quantified based on the fluorescence level of DCF detected using EVOS microscope.\nThe compound, […] (H2DCFDA), was used to detect ROS as previously described. OV2008 cells were seeded at a density of 250,000 cells/ml. After 24 h of incubation with the vehicle, 5 or 20 µM of DML6, the cells were incubated with H2DCFDA for 30 min at 37 °C. The cells were washed 3 times with 1X PBS for 5 min. The levels of reactive oxygen species were then determined based on the fluorescence level of the oxidized DCFDA dye (excitation at 485 nm and emission at 535), using a EVOS digital fluorescent microscope at 20× magnification."}, "OV2008 cells [3]": {"test_system": "OV2008 cells", "test": "Apoptosis and mitochondrial membrane potential (MitoTracker Red / Alexa Fluor 488 annexin V)", "format": "cell-based", "settings": "24 h; for percentage of apoptotic cells in quadrant II (Q2): vehicle 8.41%; for percentage of live cells in quadrant I (Q1): vehicle 90.86%", "procedure": "MitoTracker® Red and Alexa Fluor 488 annexin V kits for flow cytometry (Molecular Probes Inc., Eugene, OR, USA) were used to determine the mitochondrial membrane potential and apoptosis, respectively, in OV2008 cells, as previously described. OV2008 cells were seeded in 6-well plates and incubated with the vehicle, 5 or 20 μM of DML6 for 24 h. The following day, the cells were trypsinized using 0.25% trypsin, 2.21 mM EDTA, 1×, counted and 4 μL of 10 μM MitoTracker® Red working solution was added to 1 mL of the harvested cells. The cells were incubated at 37 °C with 5% CO2 for 30 min. The cells were washed with ice-cold phosphate-buffered saline (PBS), followed by cell resuspension in 100 μL of the annexin binding buffer. The cell suspensions were then incubated with 5 μL of Alexa Fluor 488 annexin V for 15 min, followed by adding 400 μL of the annexin-binding buffer. Finally, flow cytometry was used to detect the fluorescence of stained cells at the following excitation/emission maximum: Alexa Fluor® 488 annexin V: 499/521 nm; MitoTracker® Red: 579/599 nm, using a flow cytometer BD FACSCanto™ (BD Biosciences, Becton-Dickinson, San Jose, CA, USA) and analyzed using FCS Express 7 plus De Novo software (Glendale, CA, USA)."}, "HEK293": {"test_system": "HEK293", "test": "MTT assay, HEK293", "format": "cell-based, human", "settings": "read-out: IC50 ± SD Kidney HEK293", "method": "as §1, §2\n(§4) The cells were seeded evenly (180 μL/well) in 96-well plates, at a density of 3000–5000 cells/well and incubated with serial dilutions of the compounds ranging from 0.1 to 100 μM. The MTT dye (4 mg/ml) was added after 72 h of incubation and incubated with the cells for an additional 4 h at 37 °C, allowing the viable cells to biotransform the yellow-colored MTT into dark-blue formazan crystals. Following incubation, the medium was aspirated, and the formazan crystals were dissolved by adding 100 μL of DMSO to each well. Cytation™ 5 and Cytation™ 7 multi-mode detector (Bio Tek Instruments, Winooski, VT, USA) was used to determine the absorbance readings at a wavelength of 570 nm. The IC50 values were determined based on 3 separate experiments, with each experiment carried out in triplicate."}, "OV2008 cells [4]": {"test_system": "OV2008 cells", "test": "IncuCyte Cytotox green assay", "format": "cell-based", "settings": "OV2008, up to 72 h, vs vehicle", "excerpt": "The IncuCyte cytotox green reagent (Catalog # 4633, Essence BioScience, Ann Arbour, MI, USA) was used for real time quantification of dead OV2008 cells as previously described. This dye will only penetrate into cells with non-intact membranes (dead or non-viable cells). As the cells die, the increase in cell membrane permeability allows the reagent to enter the nucleus and bind to DNA, which emits green fluorescence at an excitation maximum of 491 nm and emission maximum of 509 nm. OV2008 cells were seeded (100 µL/well) in a 96-well plate and incubated overnight. The following day, DML6 (0.1–100 μM) was prepared at 3X the final assay concentrations in diluted IncuCyte™ Cytotox Reagent and added to each well (50 µL/well). The cells were immediately placed in the IncuCyte® S3 Live-Cell Analysis System (Essen BioScience, Ann Arbor, MI, USA) and images were taken every 2 h up to 72 h and analyzed using the integrated IncuCyte S3 software version 2020B (Essen BioScience, Ann Arbor, MI, USA)."}, "[5]": {"test_system": "caspase-3/7 in OV2008 cells", "test": "Time-dependent apoptosis induction (Caspase-3/7 Green reagent)", "format": "cell-based", "procedure": "Cell Event™ Caspase-3/7 Green Detection Reagent from (Catalog # C10423, Life Technologies, Carlsbad, CA, USA), which is a novel fluorogenic substrate for activated caspase-3/7 that is compatible with living cells, was used to determine apoptosis activation in real-time in OV2008 cells incubated with DML6. Briefly, OV2008 cells were seeded in 96-well plates at a density of 1 × 10^3 cell/well. Twenty-four hours later, the cells were incubated with the vehicle (DMEM media with 10% FBS and 1% penicillin and streptomycin), 5 or 20 µM of DML6 for 72 h. Five micromolar of the apoptosis-detecting reagents were added to the cells immediately after DML6 and were incubated for up to 72 h at 37 °C. Fluorescence was determined every 24h using a live cell imaging system (IncuCyte Zoom, Essen Bioscience, Ann Arbor, MI, USA, using an absorption/emission maximum of ~502/530 nm."}, "LOVO": {"test_system": "LOVO", "test": "MTT assay, LOVO", "format": "cell-based", "settings": "Homo sapiens, LoVo, 72 h, read-out: IC50 ± SD Colon LOVO", "method": "as §1, §2, §4"}, "A549": {"test_system": "A549", "test": "MTT assay, A549", "format": "cell-based", "settings": "Homo sapiens, A549, 72 h, read-out: IC50 ± SD Lung A549", "method": "as §1, §2, §4"}, "cancer cell lines": {"test_system": "cancer cell lines", "test": "MTT assay, panel of cancer cell lines", "format": "cell-based", "method": "as §1, §2\nThe cells were seeded evenly (180 μL/well) in 96-well plates, at a density of 3000–5000 cells/well and incubated with serial dilutions of the compounds ranging from 0.1 to 100 μM. The MTT dye (4 mg/ml) was added after 72 h of incubation and incubated with the cells for an additional 4 h at 37 °C, allowing the viable cells to biotransform the yellow-colored MTT into dark-blue formazan crystals. Following incubation, the medium was aspirated, and the formazan crystals were dissolved by adding 100 μL of DMSO to each well. Cytation™ 5 and Cytation™ 7 multi-mode detector (Bio Tek Instruments, Winooski, VT, USA) was used to determine the absorbance readings at a wavelength of 570 nm. The IC50 values were determined based on 3 separate experiments, with each experiment carried out in triplicate. The selectivity of the compounds was determined by comparing their IC50 values in cervical cancer compared to the normal epithelial cell lines, HEK293, CHO, and CRL1459."}, "[6]": {"test_system": "Chinese hamster ovary cells (CHO)", "method": "as §1, §2, §3"}, "OV2008 cells [7]": {"test_system": "OV2008 cells", "test": "Nuclear staining with Hoechst dye", "format": "cell-based", "procedure": "Nuclear fragmentation and chromatin condensation were detected using the Hoechst 33258 DNA dye as previously described. OV2008 cells were seeded at a density of 250,000 cells/mL in 6-well plates and incubated overnight at 37 °C. The next day, the cells were incubated with the vehicle (DMEM media with 10% FBS and 1% penicillin and streptomycin), 5 or 20 μM of DML6 and further incubated overnight at 37 °C. The cells were fixed and stained with the Hoechst 33258 DNA dye for at least 30 min. The stained nucleus fluorescence was detected using an EVOS digital microscope at wavelengths of 460–490 nm."}}, "note": "Like-named read-outs stand apart in the source and are kept apart here.", "data": [{"compound": "CN(C)c1ccc(/C=C/C(=O)c2ccc(Cl)cc2Cl)cc1", "note": "[DML6, (E)-1-[2,4-dichlorophenyl]-3-(4-(dimethylamino)phenyl)prop-2-en-1-one]", "values": [{"measurement": "cytotoxicity in normal cells, CRL1459", "setting": "[1]", "result": "did not produce significant cytotoxicity"}, {"measurement": "levels of DCF fluorescence (ROS)", "setting": "OV2008 cells [2]", "result": "significantly higher"}, {"measurement": "percentage of apoptotic cells in quadrant II (Q2)", "setting": "OV2008 cells [3]; 5 µM", "result": 41.38, "unit": "%"}, {"measurement": "percentage of live cells in quadrant I (Q1)", "setting": "OV2008 cells [3]; 5 µM", "result": 53.39, "unit": "%"}, {"measurement": "percentage of apoptotic cells in quadrant II (Q2)", "setting": "OV2008 cells [3]; 20 µM", "result": 73.67, "unit": "%"}, {"measurement": "percentage of live cells in quadrant I (Q1)", "setting": "OV2008 cells [3]; 20 µM", "result": 22.37, "unit": "%"}, {"measurement": "IC50", "setting": "HEK293; 72 h", "result": "70 ± 42.4", "unit": "µM"}, {"measurement": "IC50", "setting": "HEK293; Homo sapiens, HEK293, 72 h", "result": "> 65", "unit": "µM"}, {"measurement": "Cytotox green fluorescent signal (dead cells) over time", "setting": "OV2008 cells [4]", "result": "increased significantly"}, {"measurement": "incubation time required to induce apoptosis", "setting": "[5]; 5 µM", "result": "≈ 48 h"}, {"measurement": "incubation time required to induce apoptosis", "setting": "[5]; 20 µM", "result": "< 24", "unit": "h"}, {"measurement": "apoptosis induction by activating caspase-3 and caspase-7", "setting": "[5]; 5 or 20 μM, time-dependent, vs vehicle", "result": "significantly induced apoptosis"}, {"measurement": "IC50", "setting": "LOVO", "result": "65 ± 49.5", "unit": "µM"}, {"measurement": "IC50", "setting": "A549", "result": "84.9 ± 21.4", "unit": "µM"}, {"measurement": "anti-proliferative efficacy in a wide range of cancer cell lines, compared to normal cells", "setting": "cancer cell lines", "result": "moderate to good anti-proliferative efficacy"}, {"measurement": "IC50", "setting": "cancer cell lines; range over the cell lines, read-out: IC50 values in all of the cancer cell lines", "result": "7.8 to 91.9", "unit": "µM"}, {"measurement": "cytotoxicity in normal cells, CHO", "setting": "[6]", "result": "did not produce significant cytotoxicity"}, {"measurement": "nuclear morphology", "setting": "OV2008 cells [7]; 5 μM, 24 h", "result": "increased the number of cells with condensed, fragmented nuclei"}, {"measurement": "nuclear morphology", "setting": "OV2008 cells [7]; 20 µM", "result": "decondensed, multiple micronuclei and some single, highly condensed nuclei"}, {"measurement": "percentage of apoptotic nuclei", "setting": "OV2008 cells [7]; 5 and 20 μM, vs vehicle", "result": "significantly higher"}]}]}
